Entries after “also recorded” stand apart in the source; their conditions may differ.
Assays:
[1] = test system: EEF4 (TSC2+/+) cells; test: S6K and 4EBP1 phosphorylation in EEF4 (TSC2+/+) fibroblasts; type: cell-based
[2] = test system: phosphorylation of S6K, S6, 4EBP1 and mTOR; test: Immunoblot of S6K, S6, 4EBP1 and mTOR phosphorylation in HEK293 cells under energy depletion; type: cell-based, human; settings: for phosphorylation of S6K and 4EBP1: depletion of cellular ATP
Method: (§1) HEK293 cells were seeded and maintained in Dulbecco's modified Eagle's medium (DMEM) containing 10% fetal bovine serum (FBS). Transfection was performed in serum-free conditions using Lipofectamine reagent (Invitrogen, Carlsbad, Calif.) in accordance with the manufacturer's instructions. In brief, 4 h after transfection, the cells were recovered in DMEM containing 10% FBS for 16 h and then starved for 16-24 h. Cells were then lysed in lysis buffer (10 mM Tris-HCl at pH 7.5, 100 mM sodium chloride, 1% NP-40, 1% Triton X-100, 50 mM sodium fluoride, 2 mM EDTA, 1 mM phenyl methylsulphonyl fluoride, 10 μg ml^−1 leupeptin and 10 μg ml^−1 aprotinine) and immunoprecipitated with the indicated antibodies and protein G-Sepharose beads. Immunocomplexes were analyzed by SDS-polyacrylamide gel electrophoresis (PAGE).

[3] = test system: db/db mice; test: Diabetic nephropathy in db/db mice: glomerular morphometry, gene expression, urinary albumin; type: in vivo; settings: rapamycin for 8 weeks from 16 weeks of age
Method: (§2) Mice were randomly divided into four groups as follows: nondiabetic db/+; nondiabetic db/+ treated with Rapamycin; diabetic db/db: and diabetic db/db treated with Rapamycin (2.0 mg/kg body weight, 3 days/week). Rapamycin was injected intraperitoneally (i.p.) from the age of 8 weeks to 25 weeks or 16 weeks to 25 weeks. Blood glucose levels and body weight were determined weekly in all animals. Mice were housed in a 12 hr light/dark cycle and temperature-controlled environment. Animal care and all experiments were conducted in accordance with the institutional guidelines of the Kyushu University Graduate School of Medicine.
Seventeen weeks after treatment with rapamycin (25 week of age), mice were deeply anesthetized, after perfusion with ice-cold PBS, the kidneys were perfused with 4% paraformaldehyde. […] To quantify mesangial expansion, sections were coded and read. […] The extent of increase in mesangial matrix (defined as mesangial area) was determined by the presence of PAS-positive and nuclei-free area in the mesangium; the glomerular surface area has been measured using standard measurements of glomerular tuft areas using a the computer program of Axiovision Auto Mesure.
At age 25 weeks, kidney was isolated from db/db and db/+ mice (n=10 for each group), and total RNA was purified. […] Data were normalized to GAPDH and analyzed by the comparative threshold cycle method. […]

[4] = test system: S6K-dC104; test: Phosphorylation and kinase activity of rapamycin-resistant S6K mutants (S6K-dC104, S6K-dNC); type: cell-based
Method: as §1
For the S6K assays, HEK293 cells grown in six-well plates were transfected with 10-20 ng HA-S6K constructs, with or without various plasmids, as indicated in the figures. HA-S6K was immunoprecipitated from serum-starved cells with an anti-HA antibody and analyzed by in vitro kinase assay using purified GST-S6 as a substrate (Pearson et al., EMBO J. 14:5279-5287 (1995)).

[5] = test system: db/db mice; type: in vivo; settings: 16 weeks treatment
Method: m+/+ Lepr db (db/+) mice were obtained from The Charles River Japan and mated, +Lepr db/+ Lepr db mice (db/db) mice were generated.
as §2, with “Animal care and all experiments were conducted in accordance with the institutional guidelines of the Kyushu University Graduate School of Medicine.” left out
At age 25 weeks, kidney was isolated from db/db and db/+ mice (n=10 for each group), and total RNA was purified. The expression of fibronectin and α3-type IV collagen mRNA by real-time reverse transcriptase-polymerase chain reaction (RT-PCR), which was performed in an ABI 7700 sequence detector (Applied Biosystems), was quantified. […] For quantitative RT-PCR of UCP-1, BAT (brown adipose tissue) was isolated from 2 weeks rapamycin treated or untreated mice, primers used were described previously (see, e.g., Um S H, et al., Nature 431, 200-205, 2004; herein incorporated by reference in its entirety). Data were normalized to GAPDH and analyzed by the comparative threshold cycle method. […]
Data were expressed as the means±SEM. […]

[6] = biological target: TSC2 fragment containing S1345 (UniProt P49816)
[7] = biological target: TSC2-F2 fragment (UniProt P49816)
[8] = biological target: GST-TSC2 fragment 2 (amino acids 1357-1765) (UniProt P49816)
[9] = biological target: GST-TSC2 fragment 1 (amino acids 910-1112) (UniProt P49816)
[10] = test system: S6K and 4EBP1; settings: Kimura et al.; Krause et al.; cited from earlier work
[11] = test system: AMPK; settings: Corton et al.; cited from earlier work
[12] = test system: eukaryotic elongation factor 2 (eEF2); settings: Horman et al.; cited from earlier work
[13] = test system: Akt phosphorylation; test: Immunoblot of Akt phosphorylation in HEK293 cells; type: cell-based, human; settings: AMPK inhibitor treatment
Method: as §1

[14] = test system: TSC2; test: TSC2/TSC1 phosphorylation in transfected HEK293 cells (mobility shift, 32P labelling, two-dimensional phosphopeptide mapping); type: cell-based, human; settings: 10 μM, added 30 minutes before 2-DG, HEK293
Method: as §1
HEK293 cells were cotransfected with HA-tagged TSC2, Myc-tagged TSC1 and the indicated plasmids. Cells were phosphate- and serum-starved for 4 h before incubation with 0.25 mCi ml^−1 32P-orthophosphate (ICN) for 4 h.
Cells were washed once with ice-cold PBS and lysed. HA-tagged TSC2 was immunoprecipitated, resolved by SDS-PAGE and transferred to a PVDF membrane. Phosphorylated TSC2 was visualized by autoradiography and phosphopeptide mapping was then performed. In brief, the phosphorylated TSC2 bands were excised, fixed in methanol and incubated in 500 μl of 0.5% polyvinylpyrrolidone-40 dissolved in 100 mM acetic acid for 30 min at 37° C. The sample were then digested with 20 μg of TPCK-treated trypsin (Sigma) at 37° C. in 75 mM ammonium bicarbonate buffer at pH 8.0 containing 5% acetonitrile. After digestion, samples were dried under vacuum and suspended in 10 μl of water. Samples were spotted onto a cellulose plate and first dimensional electrophoresis was performed using 1% ammonium bicarbonate buffer at pH 8.9. The plates were separated by chromatography in the second dimension in chromatography buffer (n-butanol:pyridine:acetic acid:water; 20:24:6:30). The plates were dried and phosphopeptides were visualized by autoradiography.

[15] = test system: LEF (TSC2−/− epithelial) cells; test: Cell death / apoptosis of LEF cells (vector, TSC2, TSC2-3A); type: cell-based; settings: vector and wild type TSC2 expressing LEF cells
Method: FIGS. 16a-16f show TSC2 plays roles in protecting cells from glucose depletion-induced apoptosis. […] LEF cells stably expressing vector, TSC2, or TSC2-3A were cultured in 25 mM glucose (G+) or glucose free medium (G−) with or without 20 nM rapamycin. Pictures were taken at 72 hours in culture. Note that the TSC2 wild type expressing cells are morphologically smaller. […] LEF cells stably expressing vector, TSC2 or TSC2-3A were cultured in glucose free medium with or without 20 nM rapamycin for 48 hours. Western blots with anti-cleaved-caspase-3 and actin are shown. […] EEF cells were cultured in glucose free medium with or without 20 nM rapamycin for 96 hours. […] The EEF4 and EEF8 cells were cultured in glucose free medium with or without 20 nM rapamycin for 72 hours. Western blots with cleaved-caspase-3 and actin are shown. […] The MEFs were cultured in glucose free medium for 48 hours. […] MEFs were cultured in glucose free medium with or without 20 nM rapamycin for 16 hours. Western blots with cleaved-caspase-3 and actin are shown.

## CC(=O)c1c(O)c(C)c(O)c(Cc2c(O)c3c(c(C(=O)/C=C/c4ccccc4)c2O)OC(C)(C)C=C3)c1O [Rottlerin]
[1]
  S6K phosphorylation: caused a decrease in S6K phosphorylation
[2]
  phosphorylation of S6K and 4EBP1: caused a dephosphorylation of S6K and 4EBP1

## CO[C@H]1C[C@@H]2CC[C@@H](C)[C@@](O)(O2)C(=O)C(=O)N2CCCC[C@H]2C(=O)O[C@H]([C@H](C)C[C@@H]2CC[C@@H](O)[C@H](OC)C2)CC(=O)[C@H](C)/C=C(\C)[C@@H](O)[C@@H](OC)C(=O)[C@H](C)C[C@H](C)/C=C/C=C/C=C/1C [rapamycin]
[3]
  amount of albumin excreted relative to the starting point (16w; db/db): 60%
[4]
  phosphorylation of Thr 389 in S6K-dC104: not inhibited
[5]
  increase in oxygen consumption versus db/db untreated mice: 3.27 folds

## OC[C@@H](O)[C@@H](O)[C@H](O)[C@H](O)CO [mannitol]
[2]; 25 mM
  phosphorylation of S6K on T389: had little effect
[2]; 100 mM
  phosphorylation of S6K: significantly inhibited

## immunoprecipitated AMPK (in vitro kinase assay)
[6]
  in vitro phosphorylation by immunoprecipitated AMPK: The TSC2 fragment was phosphorylated by immunoprecipitated AMPK, but not the kinase inactive AMPK mutant
[7]
  in vitro phosphorylation by immunoprecipitated AMPK: In vitro phosphorylation of the purified TSC2-F2 fragment by immunoprecipitated AMPK showed that AMPK specifically phosphorylates TSC2 on T1227

## N#CC(C#N)=NNc1ccc(OC(F)(F)F)cc1 [FCCP]
[1]
  S6K phosphorylation: caused a decrease in S6K phosphorylation
[2]
  phosphorylation of S6K and 4EBP1: caused a dephosphorylation of S6K and 4EBP1

## GST-Akt
[8]
  in vitro phosphorylation by purified Akt: Wild-type Akt, but not the kinase-inactive Akt-KM mutant, efficiently phosphorylated both fragment 1 and fragment 2 of TSC2 in vitro
[9]
  in vitro phosphorylation by purified Akt: Wild-type Akt, but not the kinase-inactive Akt-KM mutant, efficiently phosphorylated both fragment 1 and fragment 2 of TSC2 in vitro

## NC(=O)c1ncn([C@@H]2O[C@H](COP(=O)(O)O)[C@@H](O)[C@H]2O)c1N [AICAR, 5-aminoimidazole-4-carboxyamide ribonucleotide]
[10]
  S6K activity: inhibit S6K activity
[11]
  AMPK activation: activate AMPK
[12]
  phosphorylation of eEF2: increase phosphorylation

## c1cc(-c2cnn3cc(-c4ccc(OCCN5CCCCC5)cc4)cnc23)ccn1 [Compound C]
[13]
  Akt phosphorylation: had no effect
[2]; HEK 293, with 2-DG, listed as AMPK inhibitor
  effect on 2-DG induced dephosphorylation of S6K: significantly reversed the inhibitory effect of 2-DG on S6K phosphorylation; also recorded: blocks the 2-DG induced dephosphorylation of S6K
[2]; glucose deprivation, listed as AMPK inhibitor
  S6K dephosphorylation induced by glucose deprivation: significantly blocked; also recorded: partially blocks
[14]
  mobility of TSC2 / 2-DG induced mobility shift: blocks the 2-DG induced mobility shift of TSC2
[14]; listed as compound C
  mobility of TSC2 / 2-DG induced mobility shift: increased the mobility of TSC2

## COc1cc([C@@H]2c3cc4c(cc3[C@@H](O[C@@H]3O[C@@H]5CO[C@@H](C)O[C@H]5[C@H](O)[C@H]3O)[C@H]3COC(=O)[C@H]23)OCO4)cc(OC)c1O [Etoposide]
[15]
  cell death: caused cell death in both vector and wild type TSC2 expressing cells
